Measurements: patent US6440387B1, “Methods for determining risk of Alzheimer's disease” (Children's Medical Center Corporation, priority 1998, dated 2002)

Assays:
Aβ levels in the brain = assay: Dietary cholesterol and Aβ levels in rat cerebral cortex; assay type: in vivo; details: 20 month old rats, high cholesterol diet (5% cholesterol) vs low cholesterol diet (0.1% cholesterol), 10 weeks
Experimental: These experiments were performed on 20 month old rats. The rats were fed a low cholesterol diet (0.1% cholesterol) or a high cholesterol diet (5% cholesterol). After 10 weeks, the animals were sacrificed and the cortex was removed for measurement of Aβ levels. Aβ was assayed by immunoprecipitating cortical homogenates with the Aβ antibody B12, followed by Western blotting with the commercially available Aβ monoclonal antibody 4G8.

[1] = system: Aβ production by human cortical neurons; assay: Effect of HMG CoA reductase inhibitors on Aβ levels in human cortical neuronal cultures; assay type: cell-based; details: 100 μM, 48 hours
Experimental: Busciglio et al., (1993) Proc. Nat. Acad. Sci. 90, 2092-2096, described the production of Aβ by human cortical neurons in culture . To determine whether cholesterol can affect the production of Aβ, primary human brain cultures were established from the cortex of 16-20 week fetal abortuses, and the neurons incubated in the absence or presence of very low density lipoprotein (VLDL), low density lipoprotein (LDL) or high density lipoprotein (HDL) particles isolated from human plasma. These lipoprotein particles are the physiological vehicles for the transport of cholesterol to cells. The effects of the different lipoprotein particles on the levels of Aβ in the human cortical cultures was determined. The human cortical cultures were maintained in serum-free Dulbecco's Modified Eagle's Medium (DMEM) with N2 supplements (a serum-free supplement that supports neuronal viability). The medium was then changed to the same medium (controls) or medium supplemented with VLDL, LDL, or HDL particles. After incubation for 48-72 hours, Aβ was measured by immunoprecipitation of the culture medium with a polyclonal antibody to Aβ (B12), followed by Western blotting with a mohoclonal antibody to Aβ (6E10). […] The bands corresponding to the 40 and 42 amino acid form of Aβ were analyzed quantitatively using a computer software program. […]

| levels of Aβ relative to controls [1] | Compound | increase in Aβ levels in rat cerebral cortex (Aβ levels in the brain) |
| --- | --- | --- |
| – | CC(C)CCC[C@@H](C)[C@H]1CC[C@H]2[C@@H]3CC=C4C[C@@H](O)CC[C@]4(C)[C@H]3CC[C@]12C [cholesterol] | about 50% |
| significantly decreased levels of Aβ | CC[C@H](C)C(=O)O[C@H]1C[C@@H](C)C=C2C=C[C@H](C)[C@H](CC[C@@H]3C[C@@H](O)CC(=O)O3)[C@H]21 [lovastatin] | – |
